{
  "source": "PubChem BioAssay AID1963852",
  "about": "(Molecular Pharmacology Branch, DTP, NCI, 2024)",
  "system": "282377-053-R-J1-PDC complex spheroid viability",
  "assay": "Anticancer human tumor 282377-053-R-J1-PDC patient-derived colon adenocarcinoma cell line growth inhibition [POLQ]",
  "settings": "for IC50: curve of first compound; for viability, T/C: stronger effect = lower value",
  "how_it_was_run": "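Growth inhibition in 3D: complex spheroids (tumor PDC, HUVEC, MSC) treated with POLQ inhibitor combinations; where Cmax unknown, highest tested concentration 10 microM, except SN-38 at 1 microM.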",
  "key": {"[1]": {"settings": "second compound 0.0316 µM, first compound 0.0316 µM"}, "[2]": {"settings": "second compound 0.0316 µM, first compound 0.1 µM"}, "[3]": {"settings": "second compound 0.0316 µM, first compound 0.316 µM"}, "[4]": {"settings": "second compound 0.0316 µM, first compound 1 µM"}, "[5]": {"settings": "second compound 0.0316 µM, first compound 3.16 µM"}, "[6]": {"settings": "second compound 0.0316 µM, first compound 10 µM"}, "[7]": {"settings": "second compound 0.1 µM, first compound 0.0316 µM"}, "[8]": {"settings": "second compound 0.1 µM, first compound 0.1 µM"}, "[9]": {"settings": "second compound 0.1 µM, first compound 0.316 µM"}, "[10]": {"settings": "second compound 0.1 µM, first compound 1 µM"}, "[11]": {"settings": "second compound 0.1 µM, first compound 3.16 µM"}, "[12]": {"settings": "second compound 0.1 µM, first compound 10 µM"}, "[13]": {"settings": "second compound 0.316 µM, first compound 0.0316 µM"}, "[14]": {"settings": "second compound 0.316 µM, first compound 0.1 µM"}, "[15]": {"settings": "second compound 0.316 µM, first compound 0.316 µM"}, "[16]": {"settings": "second compound 0.316 µM, first compound 1 µM"}, "[17]": {"settings": "second compound 0.316 µM, first compound 3.16 µM"}, "[18]": {"settings": "second compound 0.316 µM, first compound 10 µM"}, "[19]": {"settings": "second compound 1 µM, first compound 0.0316 µM"}, "[20]": {"settings": "second compound 1 µM, first compound 0.1 µM"}, "[21]": {"settings": "second compound 1 µM, first compound 0.316 µM"}, "[22]": {"settings": "second compound 1 µM, first compound 1 µM"}, "[23]": {"settings": "second compound 1 µM, first compound 3.16 µM"}, "[24]": {"settings": "second compound 1 µM, first compound 10 µM"}, "[25]": {"settings": "second compound 3.16 µM, first compound 0.0316 µM"}, "[26]": {"settings": "second compound 3.16 µM, first compound 0.1 µM"}, "[27]": {"settings": "second compound 3.16 µM, first compound 0.316 µM"}, "[28]": {"settings": "second compound 3.16 µM, first compound 1 µM"}, "[29]": {"settings": "second compound 3.16 µM, first compound 3.16 µM"}, "[30]": {"settings": "second compound 3.16 µM, first compound 10 µM"}, "[31]": {"settings": "second compound 10 µM, first compound 0.0316 µM"}, "[32]": {"settings": "second compound 10 µM, first compound 0.1 µM"}, "[33]": {"settings": "second compound 10 µM, first compound 0.316 µM"}, "[34]": {"settings": "second compound 10 µM, first compound 1 µM"}, "[35]": {"settings": "second compound 10 µM, first compound 3.16 µM"}, "[36]": {"settings": "second compound 10 µM, first compound 10 µM"}},
  "data": [
    {"compound": "CC1COCCN1c1cc(-c2ccnn2C)c2ccnc(-c3ccn[nH]3)c2n1", "note": "(centres undefined) + COC1C(OC(N)=O)C(O)C(Oc2ccc3c(O)c(NC(=O)c4ccc(O)c(CC=C(C)C)c4)c(=O)oc3c2C)OC1(C)C;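 note: spheroids exposed to compounds for seven days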;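 for viability, T/C: 100% = DMSO vehicle control viability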", "values": [
      {"measurement": "IC50", "setting": "second compound 0.0316 µM", "result": 377, "unit": "nM"},
      {"measurement": "IC50", "setting": "second compound 0.1 µM", "result": 398, "unit": "nM"},
      {"measurement": "IC50", "setting": "second compound 0.316 µM", "result": 589, "unit": "nM"},
      {"measurement": "IC50", "setting": "second compound 1 µM", "result": 677, "unit": "nM"},
      {"measurement": "IC50", "setting": "second compound 3.16 µM", "result": 450, "unit": "nM"},
      {"measurement": "IC50", "setting": "second compound 10 µM", "result": 642, "unit": "nM"},
      {"measurement": "viability, T/C", "setting": "[1]", "result": 107, "unit": "%"},
      {"measurement": "viability, T/C", "setting": "[2]", "result": 99.6, "unit": "%"},
      {"measurement": "viability, T/C", "setting": "[3]", "result": 52.5, "unit": "%"},
      {"measurement": "viability, T/C", "setting": "[4]", "result": 34.2, "unit": "%"},
      {"measurement": "viability, T/C", "setting": "[5]", "result": 26.9, "unit": "%"},
      {"measurement": "viability, T/C", "setting": "[6]", "result": 25.4, "unit": "%"},
      {"measurement": "viability, T/C", "setting": "[7]", "result": 95.2, "unit": "%"},
      {"measurement": "viability, T/C", "setting": "[8]", "result": 80.5, "unit": "%"},
      {"measurement": "viability, T/C", "setting": "[9]", "result": 52.7, "unit": "%"},
      {"measurement": "viability, T/C", "setting": "[10]", "result": 36.5, "unit": "%"},
      {"measurement": "viability, T/C", "setting": "[11]", "result": 33.9, "unit": "%"},
      {"measurement": "viability, T/C", "setting": "[12]", "result": 27.6, "unit": "%"},
      {"measurement": "viability, T/C", "setting": "[13]", "result": 95.6, "unit": "%"},
      {"measurement": "viability, T/C", "setting": "[14]", "result": 87.5, "unit": "%"},
      {"measurement": "viability, T/C", "setting": "[15]", "result": 59.9, "unit": "%"},
      {"measurement": "viability, T/C", "setting": "[16]", "result": 41.1, "unit": "%"},
      {"measurement": "viability, T/C", "setting": "[17]", "result": 25.9, "unit": "%"},
      {"measurement": "viability, T/C", "setting": "[18]", "result": 20.4, "unit": "%"},
      {"measurement": "viability, T/C", "setting": "[19]", "result": 89.1, "unit": "%"},
      {"measurement": "viability, T/C", "setting": "[20]", "result": 85.3, "unit": "%"},
      {"measurement": "viability, T/C", "setting": "[21]", "result": 68.4, "unit": "%"},
      {"measurement": "viability, T/C", "setting": "[22]", "result": 40, "unit": "%"},
      {"measurement": "viability, T/C", "setting": "[23]", "result": 27.4, "unit": "%"},
      {"measurement": "viability, T/C", "setting": "[24]", "result": 21.4, "unit": "%"},
      {"measurement": "viability, T/C", "setting": "[25]", "result": 102, "unit": "%"},
      {"measurement": "viability, T/C", "setting": "[26]", "result": 94.8, "unit": "%"},
      {"measurement": "viability, T/C", "setting": "[27]", "result": 57.3, "unit": "%"},
      {"measurement": "viability, T/C", "setting": "[28]", "result": 32.5, "unit": "%"},
      {"measurement": "viability, T/C", "setting": "[29]", "result": 26.5, "unit": "%"},
      {"measurement": "viability, T/C", "setting": "[30]", "result": 22.6, "unit": "%"},
      {"measurement": "viability, T/C", "setting": "[31]", "result": 121, "unit": "%"},
      {"measurement": "viability, T/C", "setting": "[32]", "result": 80.8, "unit": "%"},
      {"measurement": "viability, T/C", "setting": "[33]", "result": 66.7, "unit": "%"},
      {"measurement": "viability, T/C", "setting": "[34]", "result": 39.7, "unit": "%"},
      {"measurement": "viability, T/C", "setting": "[35]", "result": 33.3, "unit": "%"},
      {"measurement": "viability, T/C", "setting": "[36]", "result": 21.8, "unit": "%"}
    ]},
    {"compound": "COc1cc2cc(C(=O)CCC(=O)O)sc2cc1OC", "note": "+ Nc1ccc(C#CCN(C(=O)Cc2ncc(C(F)(F)F)cc2C(F)(F)F)c2ccc(F)cc2)nn1", "values": [
      {"measurement": "IC50", "setting": "second compound 0.0316 µM", "result": "> 10000", "unit": "nM"},
      {"measurement": "IC50", "setting": "second compound 0.1 µM", "result": "> 10000", "unit": "nM"},
      {"measurement": "IC50", "setting": "second compound 0.316 µM", "result": "> 10000", "unit": "nM"},
      {"measurement": "IC50", "setting": "second compound 1 µM", "result": "> 10000", "unit": "nM"},
      {"measurement": "IC50", "setting": "second compound 3.16 µM", "result": "> 10000", "unit": "nM"},
      {"measurement": "IC50", "setting": "second compound 10 µM", "result": "> 10000", "unit": "nM"},
      {"measurement": "viability, T/C", "setting": "[1]", "result": 92.5, "unit": "%"},
      {"measurement": "viability, T/C", "setting": "[2]", "result": 94.8, "unit": "%"},
      {"measurement": "viability, T/C", "setting": "[3]", "result": 115, "unit": "%"},
      {"measurement": "viability, T/C", "setting": "[4]", "result": 102, "unit": "%"},
      {"measurement": "viability, T/C", "setting": "[5]", "result": 92.2, "unit": "%"},
      {"measurement": "viability, T/C", "setting": "[6]", "result": 95.2, "unit": "%"},
      {"measurement": "viability, T/C", "setting": "[7]", "result": 112, "unit": "%"},
      {"measurement": "viability, T/C", "setting": "[8]", "result": 105, "unit": "%"},
      {"measurement": "viability, T/C", "setting": "[9]", "result": 81.5, "unit": "%"},
      {"measurement": "viability, T/C", "setting": "[10]", "result": 102, "unit": "%"},
      {"measurement": "viability, T/C", "setting": "[11]", "result": 94.5, "unit": "%"},
      {"measurement": "viability, T/C", "setting": "[12]", "result": 125, "unit": "%"},
      {"measurement": "viability, T/C", "setting": "[13]", "result": 103, "unit": "%"},
      {"measurement": "viability, T/C", "setting": "[14]", "result": 95.3, "unit": "%"},
      {"measurement": "viability, T/C", "setting": "[15]", "result": 89.9, "unit": "%"},
      {"measurement": "viability, T/C", "setting": "[16]", "result": 87.3, "unit": "%"},
      {"measurement": "viability, T/C", "setting": "[17]", "result": 102, "unit": "%"},
      {"measurement": "viability, T/C", "setting": "[18]", "result": 79.9, "unit": "%"},
      {"measurement": "viability, T/C", "setting": "[19]", "result": 103, "unit": "%"},
      {"measurement": "viability, T/C", "setting": "[20]", "result": 84.5, "unit": "%"},
      {"measurement": "viability, T/C", "setting": "[21]", "result": 94, "unit": "%"},
      {"measurement": "viability, T/C", "setting": "[22]", "result": 104, "unit": "%"},
      {"measurement": "viability, T/C", "setting": "[23]", "result": 107, "unit": "%"},
      {"measurement": "viability, T/C", "setting": "[24]", "result": 97.3, "unit": "%"},
      {"measurement": "viability, T/C", "setting": "[25]", "result": 109, "unit": "%"},
      {"measurement": "viability, T/C", "setting": "[26]", "result": 112, "unit": "%"},
      {"measurement": "viability, T/C", "setting": "[27]", "result": 103, "unit": "%"},
      {"measurement": "viability, T/C", "setting": "[28]", "result": 112, "unit": "%"},
      {"measurement": "viability, T/C", "setting": "[29]", "result": 100, "unit": "%"},
      {"measurement": "viability, T/C", "setting": "[30]", "result": 90.1, "unit": "%"},
      {"measurement": "viability, T/C", "setting": "[31]", "result": 126, "unit": "%"},
      {"measurement": "viability, T/C", "setting": "[32]", "result": 116, "unit": "%"},
      {"measurement": "viability, T/C", "setting": "[33]", "result": 123, "unit": "%"},
      {"measurement": "viability, T/C", "setting": "[34]", "result": 107, "unit": "%"},
      {"measurement": "viability, T/C", "setting": "[35]", "result": 117, "unit": "%"},
      {"measurement": "viability, T/C", "setting": "[36]", "result": 104, "unit": "%"}
    ]}
  ]
}
